From PubChem BioAssay (NCI)
Values joined by “and” are separate entries in the source; they are usually repeats but may differ in a detail not shown here. Equal values may be shown once.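 Five concentrations, 48 hours, 96-well plates. The concentration for 50% growth inhibition is given as GI50. The concentration for full growth arrest is given as TGI.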

Legend:
Test in all cases: NCI tumour cell line growth inhibition, 48 h
[1] = system: LOX IMVI melanoma
[2] = system: CAKI-1 renal
[3] = system: UO-31 renal
[4] = system: OVCAR-8 ovarian
[5] = system: MALME-3M melanoma
[6] = system: HOP-92 NSCLC
[7] = system: RXF 393 renal
[8] = system: HOP-62 NSCLC
[9] = system: DMS 114 small cell lung
[10] = system: DMS 273 small cell lung
[11] = system: M19-MEL melanoma
[12] = system: SNB-78 CNS

CS(=O)(=O)Nc1ccc(-c2cc(-c3ccccc3)cc(C(N)=O)c2N)cc1
GI50 [1]: > 25 µM
TGI [1]: > 25 µM
GI50 [2]: > 22.6 µM
TGI [2]: > 25 µM
GI50 [3]: 14.7 µM
TGI [3]: > 25 µM
GI50 [4]: > 22.6 µM
TGI [4]: > 25 µM
GI50 [5]: > 25 µM
TGI [5]: > 25 µM
GI50 [6]: 8.9 µM
TGI [6]: > 25 µM
GI50 [7]: > 25 µM
TGI [7]: > 25 µM
GI50 [8]: > 25 µM
TGI [8]: > 25 µM

O=C1C(=O)c2c(nc3ccc(Br)cn23)-c2ccccc21
GI50 [1]: 0.242 µM
TGI [1]: 0.689 µM
GI50 [2]: 1.52 µM
TGI [2]: 3.01 µM
GI50 [3]: 0.48 µM
TGI [3]: 1.24 µM
GI50 [4]: 0.575 µM
TGI [4]: 1.68 µM
GI50 [5]: 0.19 µM
TGI [5]: 0.371 µM
GI50 [6]: 1.22 µM
TGI [6]: 2.7 µM
GI50 [7]: 1.55 µM
TGI [7]: 2.97 µM
GI50 [8]: 1.59 µM
TGI [8]: 3.04 µM

O=C1Nc2c(C(F)(F)F)cccc2[C@@]1(c1ccc(O)cc1)c1ccc(OC(F)(F)F)cc1
GI50 [1]: < 0.01 µM
TGI [1]: < 0.0137 µM
GI50 [2]: 0.0364 µM
TGI [2]: 0.971 µM
GI50 [3]: 0.0143 µM
TGI [3]: 0.028 µM
GI50 [4]: < 0.01 µM
TGI [4]: 0.0102 µM
GI50 [5]: 12.4 µM
TGI [5]: 25 µM
GI50 [6]: 0.0136 µM
TGI [6]: 0.0802 µM
GI50 [7]: < 0.0107 µM
TGI [7]: < 0.0232 µM
GI50 [8]: 0.0226 µM
TGI [8]: 0.0661 µM

COc1ccc(C(SCC(N)C(=O)O)(c2ccccc2)c2ccccc2)cc1 (stereo unspecified)
GI50 [1]: 0.668 µM
TGI [1]: 25.7 µM
GI50 [2]: 0.457 µM
TGI [2]: > 100 µM
GI50 [3]: 13.6 µM
TGI [3]: > 100 µM
GI50 [4]: 0.482 µM
TGI [4]: > 100 µM
GI50 [5]: > 43 µM
TGI [5]: > 100 µM
GI50 [6]: 2 µM
TGI [6]: 66.8 µM
GI50 [7]: 0.19 µM
TGI [7]: > 100 µM
GI50 [8]: 0.392 µM
TGI [8]: > 84.5 µM

CC(/C(=N\Nc1ccccc1)c1ccc(O)cc1)C1C(=O)Oc2ccccc21 (stereo unspecified)
TGI [1]: > 100 µM
TGI [9]: > 100 µM
TGI [2]: > 100 µM
TGI [3]: > 100 µM
TGI [10]: > 100 µM
TGI [11]: > 100 µM
TGI [4]: > 100 µM
TGI [5]: > 100 µM
TGI [7]: > 100 µM
TGI [8]: > 100 µM

NC1CCC(Nc2nc(NCc3ccc(-c4cccs4)nc3)c3ncn(C4CCCC4)c3n2)CC1 (stereo unspecified)
GI50 [1]: 0.296 µM
TGI [1]: 3.48 µM
GI50 [2]: 1.62 µM
TGI [2]: 9.92 µM
GI50 [3]: 0.203 µM
TGI [3]: 0.661 µM
GI50 [4]: 0.0504 µM
TGI [4]: 12.9 µM
GI50 [5]: 0.122 µM
TGI [5]: 0.523 µM
GI50 [6]: 0.03 µM
TGI [6]: 0.134 µM
GI50 [7]: 0.0148 µM
TGI [7]: 0.0378 µM
GI50 [8]: 0.0276 µM
TGI [8]: 0.0987 µM

Cc1ccc(-c2cc3c(SCC(=O)Nc4cc(C(F)(F)F)ccc4Cl)nccn3n2)cc1
GI50 [1]: > 100 µM
TGI [1]: > 100 µM
GI50 [2]: > 100 µM
TGI [2]: > 100 µM
GI50 [3]: > 100 µM
TGI [3]: > 100 µM
GI50 [4]: 29.8 µM
TGI [4]: > 100 µM
GI50 [5]: > 100 µM
TGI [5]: > 100 µM
GI50 [6]: 14.1 µM
TGI [6]: > 100 µM
GI50 [7]: > 100 µM
TGI [7]: > 100 µM
GI50 [8]: 58.2 µM
TGI [8]: > 100 µM

O=C1c2ccccc2S(=O)(=O)N1CSC(=S)N1CCCCC1
GI50 [1]: > 100 µM
TGI [1]: > 100 µM
GI50 [2]: > 100 µM
TGI [2]: > 100 µM
GI50 [3]: > 100 µM
TGI [3]: > 100 µM
GI50 [4]: > 100 µM
TGI [4]: > 100 µM
GI50 [5]: > 100 µM
TGI [5]: > 100 µM
GI50 [6]: > 100 µM
TGI [6]: > 100 µM
GI50 [7]: > 100 µM
TGI [7]: > 100 µM
GI50 [8]: > 100 µM
TGI [8]: > 100 µM

Cc1ccc2ncnc(N(CC(C)C)CC(C)C)c2c1
GI50 [1]: 16.2 µM
TGI [1]: 34.4 µM
GI50 [2]: 12.8 µM
TGI [2]: 26.6 µM
GI50 [3]: 22.2 µM
TGI [3]: > 100 µM
GI50 [4]: 12.1 µM
TGI [4]: 31.9 µM
GI50 [5]: 16.8 µM
TGI [5]: 31.7 µM
GI50 [6]: 8.36 µM
TGI [6]: 24 µM
GI50 [7]: 11.5 µM
TGI [7]: 27.7 µM
GI50 [8]: 15.5 µM
TGI [8]: 31.2 µM

CC1=CC(=C(c2ccc(N)cc2)c2ccc(N)cc2)C=CC1=N
GI50 [1]: 1.38 µM and 3.71 µM
TGI [1]: 5.5 µM and 6.81 µM and 15 µM
TGI [9]: 12.9 µM
GI50 [2]: 3.35 µM and 8.97 µM
TGI [2]: 13.9 µM and 51.7 µM and 35.6 µM
TGI [12]: 9.89 µM
GI50 [3]: 9.52 µM and 14.9 µM
TGI [3]: 55.6 µM and 50.5 µM and 41.3 µM
TGI [11]: 14.5 µM
GI50 [4]: 0.759 µM and 1.51 µM
TGI [4]: 34.5 µM and 31.4 µM and 12.4 µM
GI50 [5]: 0.771 µM
TGI [5]: 6.18 µM and 11.2 µM and 11.7 µM
GI50 [6]: 0.949 µM and 3.25 µM
GI50 [7]: 3.17 µM and 5.67 µM
TGI [7]: 12.2 µM and 34.5 µM and 22.9 µM
GI50 [8]: 0.486 µM
TGI [8]: 1.98 µM and 7.16 µM

CCCCCCCCOCC(O)COC(=O)CCCCCCC (stereo unspecified)
TGI [1]: > 100 µM
TGI [9]: > 100 µM
TGI [2]: > 100 µM
TGI [3]: > 100 µM
TGI [10]: > 100 µM
TGI [11]: > 100 µM
TGI [4]: > 100 µM
TGI [5]: > 100 µM
TGI [6]: 82.3 µM
TGI [8]: > 100 µM

COC(=O)C(=O)C(C(=O)C(=O)Nc1nc2ccc(C)cc2s1)c1nc2ccc([N+](=O)[O-])cc2[nH]c1=O (stereo unspecified)
TGI [1]: > 100 µM
TGI [2]: > 100 µM
TGI [3]: > 100 µM
TGI [4]: > 100 µM
TGI [5]: > 100 µM
TGI [6]: > 100 µM
TGI [7]: > 100 µM
TGI [8]: > 100 µM

Cc1cc(O)ccc1C1=NN(c2ccc(S(C)(=O)=O)cc2)C(=O)CC1
GI50 [1]: 7.25 µM
TGI [1]: > 100 µM
GI50 [2]: 2.79 µM
TGI [2]: 16.5 µM
GI50 [3]: 14.8 µM
TGI [3]: > 100 µM
GI50 [4]: 12.3 µM
TGI [4]: > 100 µM
GI50 [5]: 5.37 µM
TGI [5]: > 100 µM
GI50 [6]: 6.49 µM
TGI [6]: > 100 µM
GI50 [7]: 12.8 µM
TGI [7]: > 100 µM
GI50 [8]: 9.07 µM
TGI [8]: > 100 µM

CCOC(=O)CSC(=O)NCCCl
TGI [9]: > 100 µM
TGI [2]: > 100 µM
TGI [12]: > 100 µM
TGI [3]: > 100 µM
TGI [10]: > 100 µM
TGI [4]: > 100 µM
TGI [5]: > 100 µM
TGI [6]: > 100 µM
TGI [7]: > 100 µM
TGI [8]: > 100 µM

NNC(=O)CNC(=O)c1ccc(Cl)cc1Cl
TGI [9]: > 100 µM
TGI [2]: > 100 µM
TGI [3]: > 100 µM
TGI [10]: > 100 µM
TGI [11]: > 100 µM
TGI [4]: > 100 µM
TGI [5]: > 100 µM
TGI [6]: > 100 µM
TGI [8]: > 100 µM

NC(=O)c1ccc(NN=O)nc1
GI50 [1]: > 100 µM
TGI [1]: > 100 µM
TGI [2]: > 100 µM
TGI [3]: > 100 µM
TGI [4]: > 100 µM
TGI [5]: > 100 µM
GI50 [6]: > 100 µM
TGI [6]: > 100 µM
GI50 [7]: > 100 µM
TGI [7]: > 100 µM
TGI [8]: > 100 µM

OCC(O)C(O)C(O)c1nn(-c2ccc(Cl)cc2)c2nc3cc(Cl)c(Cl)cc3nc12 (stereo unspecified)
TGI [1]: > 100 µM
TGI [9]: > 100 µM
TGI [2]: > 100 µM
TGI [12]: 76.9 µM
TGI [3]: > 100 µM
TGI [10]: > 100 µM
TGI [11]: > 100 µM
TGI [4]: > 100 µM
TGI [5]: 71 µM
TGI [7]: 72.4 µM
TGI [8]: 71 µM
